# Measured values as given in patent US8859584B2, “TRPV1 antagonists” (AbbVie Inc., priority 2011, dated 2014).
# Columns and labels:
# human TRPV1 [1] = molecular target: T1, human TRPV1 (Homo sapiens, UniProt Q8NER1); assay: Capsaicin Activation Assay (FLIPR intracellular Ca2+, recombinant HEK293 cells); assay type: cell-based; conditions: recombinant HEK293 cells expressing hTRPV1; 50 nM capsaicin; read-out: human TRPV1 capsaicin IC50
# T1 construct: expressed in transfected cells
# Procedure: (i) Capsaicin Activation Assay
# Dulbecco's modified Eagle medium (DMEM) (with 4.5 mg/mL glucose) and fetal bovine serum were obtained from Hyclone Laboratories, Inc. (Logan, Utah). Dulbecco's phosphate-buffered saline (DPBS) (with 1 mg/mL glucose and 3.6 mg/l Na pyruvate, without phenol red), L-glutamine, hygromycin B, and Lipofectamine® were obtained from Life Technologies (Grand Island, N.Y.). G418 sulfate was obtained from Calbiochem-Novabiochem Corp. (San Diego, Calif.). Capsaicin (8-methyl-N-vanillyl-6-nonenamide) was obtained from Sigma-Aldrich, Co. (St. Louis, Mo.). Fluo-4 AM (N-[4-[6-[(acetyloxy)-methoxy]-2,7-difluoro-3-oxo-3H-xanthen-9-yl]-2-[2-[2-[bis[2-[(acetyloxy)methoxy]-2-oxyethyl]amino]-5-methylphenoxy]ethoxy]phenyl]-N-[2-[(acetyloxy)methoxy]-2-oxyethyl]-glycine, (acetyloxy)methyl ester) was purchased from Molecular Probes (Eugene, Oreg.).
# (§1) Expression plasmids encoding the hTRPV1 cDNA were transfected into HEK293 cells using Lipofectamine®. Forty-eight hours after transfection, the neomycin-resistant cells were selected with growth medium containing 800 μg/mL Geneticin (Life Technologies, formerly Gibco BRL). Surviving individual colonies were isolated and screened for TRPV1 activity. Cells expressing recombinant TRPV1 were maintained at 37° C. in DMEM containing 4 mM L-glutamine, 300 μg/mL G418 (Calbiochem) and 10% fetal bovine serum under a humidified 5% CO2 atmosphere.
# The functional activity of compounds at the TRPV1 receptor was determined by measurement of intracellular Ca^2+ levels ([Ca^2+]i) using the Fluorescence Imaging Plate Reader (FLIPR)TETRA®. All compounds were tested over a 12-point one-third-log concentration range. Compound stocks, 10 mM, were prepared in DMSO, and diluted serially across a 384-well plate using a Bravo BenchCel workstation (Agilent Technologies, Santa Clara, Calif.). A stock concentration of capsaicin (10 mM) was made in DMSO, and diluted in DPBS to a final concentration of 200 nM (4×). On the day prior to the experiment, the recombinant HEK293 cells expressing human TRPV1 (hTRPV1) were removed from tissue culture flasks and plated in growth medium into black-walled clear-bottom 384-well Biocoat™ poly-D-lysine assay plates (BD Biosciences, Bedford, Mass.) using a Multidrop® dispenser (ThermoScientific, Waltham, Mass.). […] The plated cells were incubated for 90-120 minutes in the dark at room temperature and then test compound was added to each well. Three minutes later, 200 nM capsaicin (4×) solution was added to each well in an amount sufficient to provide a final assay volume of 80 μL and capsaicin concentration of 50 nM. Fluorescence readings were made at 1 to 5 second intervals over the course of the experimental run. The peak increase in relative fluorescence units (minus baseline) was calculated, and expressed as a percentage of the 50 nM capsaicin (control) response.
# human TRPV1 [2] = molecular target: T1, human TRPV1; assay: Acid Activation Assay (pH 5.0, FLIPR intracellular Ca2+, recombinant HEK293 cells); assay type: cell-based; conditions: percentage of maximal pH 5.0-induced response remaining; HEK293 hTRPV1; max concentration 37.5 μM
# Procedure: (ii) Acid Activation Assay
# Dulbecco's modified Eagle's medium (DMEM) with 4.5 mg/mL D-glucose, fetal bovine serum, L-glutamine, and 2-morpholinoethanesulfonic acid (MES) were purchased from Sigma-Aldrich Co. (St. Louis, Mo.). […] The FLIPR® Calcium 4 assay kit was purchased from Molecular Devices (Sunnyvale, Calif.).
# as §1
# The functional activity of compounds at the TRPV1 receptor was determined by measurement of intracellular Ca^2+ levels ([Ca^2+]i) using the Fluorescence Imaging Plate Reader (FLIPR)TETRA®. […] Compound stocks, 10 mM, were prepared in DMSO, and diluted serially across a 384-well plate using a Bravo BenchCel workstation (Agilent Technologies, Santa Clara, Calif.). On the day prior to the experiment, the recombinant HEK293 cells expressing human TRPV1 (hTRPV1) were removed from tissue culture flasks and plated in growth medium into black-walled clear-bottom 384-well Biocoat™ poly-D-lysine assay plates (BD Biosciences, Bedford, Mass.) using a Multidrop® dispenser (ThermoScientific, Waltham, Mass.). […] The plated cells were incubated for 90-120 min in the dark at 25° C. The test compounds dissolved in DMSO were then added to the plates using an Agilent Bravo workstation (Agilent Technologies Inc., Santa Clara, Calif.). Three minutes later, a pH 5.0 solution was added to each well. Reagents were delivered at a rate of 40 μL/sec, and the final assay volume was 80 μL. Acidic pH solutions were prepared by titration of DPBS/MES with 1 N HCl. The intensity of the fluorescence was captured and digitally transferred to an interfaced PC. The maximum peak measured for the concentration range tested was used to calculate the corresponding peak increase in fluorescence over baseline (relative fluorescence units) which was expressed as the percentage (max % remain) of the maximal pH 5.0-induced response.
# T1 sequence (Q8NER1 whole entry): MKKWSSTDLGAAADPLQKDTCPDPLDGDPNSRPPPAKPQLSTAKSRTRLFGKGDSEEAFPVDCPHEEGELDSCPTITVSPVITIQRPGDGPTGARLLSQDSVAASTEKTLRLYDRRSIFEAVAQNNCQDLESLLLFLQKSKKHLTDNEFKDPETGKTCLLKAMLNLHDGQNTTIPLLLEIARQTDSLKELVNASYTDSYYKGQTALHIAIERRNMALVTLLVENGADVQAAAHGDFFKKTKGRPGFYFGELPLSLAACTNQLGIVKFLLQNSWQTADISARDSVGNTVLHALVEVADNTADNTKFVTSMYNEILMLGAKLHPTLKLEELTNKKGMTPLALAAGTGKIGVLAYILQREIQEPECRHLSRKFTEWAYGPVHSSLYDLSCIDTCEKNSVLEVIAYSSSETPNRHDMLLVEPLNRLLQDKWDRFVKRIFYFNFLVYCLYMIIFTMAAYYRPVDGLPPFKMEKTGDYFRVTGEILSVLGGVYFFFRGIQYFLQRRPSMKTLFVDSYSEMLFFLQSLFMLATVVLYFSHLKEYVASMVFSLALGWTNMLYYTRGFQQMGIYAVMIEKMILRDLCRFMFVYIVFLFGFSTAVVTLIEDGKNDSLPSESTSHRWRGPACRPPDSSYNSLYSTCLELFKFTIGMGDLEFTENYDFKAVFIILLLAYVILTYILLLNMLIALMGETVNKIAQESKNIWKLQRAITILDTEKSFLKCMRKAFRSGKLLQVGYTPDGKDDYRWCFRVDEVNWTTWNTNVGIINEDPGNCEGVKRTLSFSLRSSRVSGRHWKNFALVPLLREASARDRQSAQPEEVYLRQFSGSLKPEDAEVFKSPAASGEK
Structure (SMILES),IC50 (human TRPV1 [1]),human TRPV1 H+ (max % remain) (human TRPV1 [2])
"CC1(C)C[C@@H](NC(=O)Nc2cccc3c2C[C@@H](O)C3)c2ccc(OC(F)(F)F)cc2O1 [Example 72, 1-[(4R)-2,2-dimethyl-7-(trifluoromethoxy)-3,4-dihydro-2H-chromen-4-yl]-3-[(2S)-2-hydroxy-2,3-dihydro-1H-inden-4-yl]urea]",27 nM,0%
"O=C(Nc1cccc2c1CC(O)C2)NC1CC(c2cccc(Cl)c2)Oc2ccccc21 (stereo not shown) [Example 110, 1-[2-(3-chlorophenyl)-3,4-dihydro-2H-chromen-4-yl]-3-(2-hydroxy-2,3-dihydro-1H-inden-4-yl)urea]",240 nM,59%
"O=C(Nc1cccc2c1C[C@H](O)C2)N[C@@H]1CCOc2cc(C(F)(F)F)ccc21 [Example 21, 1-[(2R)-2-hydroxy-2,3-dihydro-1H-inden-4-yl]-3-[(4R)-7-(trifluoromethyl)-3,4-dihydro-2H-chromen-4-yl]urea]",89 nM,74%
"CC1(C)C[C@@H](NC(=O)Nc2ccc(F)c3c2C[C@@H](O)C3)c2ccc(F)c(Cl)c2O1 [Example 166, 1-[(4R)-8-chloro-7-fluoro-2,2-dimethyl-3,4-dihydro-2H-chromen-4-yl]-3-[(2R)-7-fluoro-2-hydroxy-2,3-dihydro-1H-inden-4-yl]urea]",65 nM,43%
"CC1(C)C[C@H](NC(=O)Nc2cccc3c2C[C@H](O)C3)c2cc(F)ccc2O1 [Example 104, 1-[(4S)-6-fluoro-2,2-dimethyl-3,4-dihydro-2H-chromen-4-yl]-3-[(2R)-2-hydroxy-2,3-dihydro-1H-inden-4-yl]urea]",> 38000 nM,100%
"CC(C)(C)c1cccc2c1OCC[C@H]2NC(=O)Nc1cccc2c1C[C@H](O)C2 [Example 51, 1-[(4R)-8-tert-butyl-3,4-dihydro-2H-chromen-4-yl]-3-[(2R)-2-hydroxy-2,3-dihydro-1H-inden-4-yl]urea]",18 nM,70%
"COc1ccc(C2CC(NC(=O)Nc3cccc4c3CC(O)C4)c3ccccc3O2)cc1OC (stereo not shown) [Example 113, 1-[2-(3,4-dimethoxyphenyl)-3,4-dihydro-2H-chromen-4-yl]-3-(2-hydroxy-2,3-dihydro-1H-inden-4-yl)urea]",> 38000 nM,74%
"CCC1(CC)C[C@@H](NC(=O)Nc2cccc3c2C[C@H](O)C3)c2ccc(C(F)(F)F)cc2O1 [Example 53, 1-[(4R)-2,2-diethyl-7-(trifluoromethyl)-3,4-dihydro-2H-chromen-4-yl]-3-[(2R)-2-hydroxy-2,3-dihydro-1H-inden-4-yl]urea]",51 nM,37%
"CCCC1(CCC)C[C@@H](NC(=O)Nc2cccc3c2C[C@H](O)C3)c2cccc(F)c2O1 [Example 59, 1-[(4R)-8-fluoro-2,2-dipropyl-3,4-dihydro-2H-chromen-4-yl]-3-[(2R)-2-hydroxy-2,3-dihydro-1H-inden-4-yl]urea]",23 nM,99%

# Next, values leading:
IC50 (human TRPV1 [1]),human TRPV1 H+ (max % remain) (human TRPV1 [2]),Structure (SMILES)
3500 nM,58%,"O=C(Nc1ccc(F)c2c1C[C@@H](O)C2)N[C@@H]1CC(CF)(CF)Oc2c(F)cccc21 [Example 170, 1-[(4R)-8-fluoro-2,2-bis(fluoromethyl)-3,4-dihydro-2H-chromen-4-yl]-3-[(2R)-7-fluoro-2-hydroxy-2,3-dihydro-1H-inden-4-yl]urea]"
6600 nM,6%,"O=C(Nc1ccc(F)c2c1C[C@H](O)C2)N[C@@H]1CC(CF)(CF)Oc2ccccc21 [Example 151, 1-[(4R)-2,2-bis(fluoromethyl)-3,4-dihydro-2H-chromen-4-yl]-3-[(2S)-7-fluoro-2-hydroxy-2,3-dihydro-1H-inden-4-yl]urea]"
32 nM,1%,"O=C(Nc1cccc2c1C[C@@H](O)C2)N[C@@H]1CC(CF)(CF)Oc2cc(OC(F)(F)F)ccc21 [Example 76, 1-[(4R)-2,2-bis(fluoromethyl)-7-(trifluoromethoxy)-3,4-dihydro-2H-chromen-4-yl]-3-[(2S)-2-hydroxy-2,3-dihydro-1H-inden-4-yl]urea]"
22 nM,75%,"CCC1(CC)C[C@@H](NC(=O)Nc2cccc3c2C[C@H](O)C3)c2ccccc2O1 [Example 49, 1-[(4R)-2,2-diethyl-3,4-dihydro-2H-chromen-4-yl]-3-[(2R)-2-hydroxy-2,3-dihydro-1H-inden-4-yl]urea]"
5500 nM,3%,"O=C(Nc1ccc(F)c2c1C[C@H](O)C2)N[C@@H]1CC(CF)(CF)Oc2c(F)cccc21 [Example 152, 1-[(4R)-8-fluoro-2,2-bis(fluoromethyl)-3,4-dihydro-2H-chromen-4-yl]-3-[(2S)-7-fluoro-2-hydroxy-2,3-dihydro-1H-inden-4-yl]urea]"
160 nM,80%,"O=C(Nc1cccc2c1C[C@H](O)C2)N[C@@H]1CC(CF)(CF)Oc2c(Cl)cccc21 [Example 2, 1-[(4R)-8-chloro-2,2-bis(fluoromethyl)-3,4-dihydro-2H-chromen-4-yl]-3-[(2R)-2-hydroxy-2,3-dihydro-1H-inden-4-yl]urea]"
41 nM,30%,"O=C(Nc1cccc2c1C[C@H](O)C2)N[C@@H]1CC(CF)(CF)Oc2cc(OC(F)(F)F)ccc21 [Example 31, 1-[(4R)-2,2-bis(fluoromethyl)-7-(trifluoromethoxy)-3,4-dihydro-2H-chromen-4-yl]-3-[(2R)-2-hydroxy-2,3-dihydro-1H-inden-4-yl]urea]"
440 nM,2%,"CC1(C)C[C@@H](NC(=O)Nc2ccc(F)c3c2C[C@H](O)C3)c2ccc(F)c(Cl)c2O1 [Example 147, 1-[(4R)-8-chloro-7-fluoro-2,2-dimethyl-3,4-dihydro-2H-chromen-4-yl]-3-[(2S)-7-fluoro-2-hydroxy-2,3-dihydro-1H-inden-4-yl]urea]"
1200 nM,50%,"O=C(Nc1cccc2c1C[C@@H](O)C2)N[C@@H]1CC(CF)(CF)Oc2c(F)cccc21 [Example 87, 1-[(4R)-8-fluoro-2,2-bis(fluoromethyl)-3,4-dihydro-2H-chromen-4-yl]-3-[(2S)-2-hydroxy-2,3-dihydro-1H-inden-4-yl]urea]"
61 nM,40%,"CC1(C)C[C@@H](NC(=O)Nc2ccc(F)c3c2C[C@@H](O)C3)c2cccc(C(F)(F)F)c2O1 [Example 156, 1-[(4R)-2,2-dimethyl-8-(trifluoromethyl)-3,4-dihydro-2H-chromen-4-yl]-3-[(2R)-7-fluoro-2-hydroxy-2,3-dihydro-1H-inden-4-yl]urea]"
1800 nM,59%,"CC1(C)C[C@@H](NC(=O)Nc2ccc(F)c3c2C[C@@H](O)C3)c2cccc(F)c2O1 [Example 157, 1-[(4R)-8-fluoro-2,2-dimethyl-3,4-dihydro-2H-chromen-4-yl]-3-[(2R)-7-fluoro-2-hydroxy-2,3-dihydro-1H-inden-4-yl]urea]"
